{
  "source": "PubChem BioAssay AID1259407",
  "about": "(Chemical Carcinogenesis Research Information System (CCRIS), 2018)",
  "test_system": "CCRIS mutagenicity, Ames/micronucleus/aberration tests",
  "test": "CCRIS mutagenicity studies",
  "key": {"[1]": {"conditions": "Test System: AMES SALMONELLA TYPHIMURIUM, Strain/Indicator: TA100, Metabolic Activation: NONE, Method: STANDARD PLATE"}, "[2]": {"conditions": "Test System: AMES SALMONELLA TYPHIMURIUM, Strain/Indicator: TA98, Metabolic Activation: NONE, Method: STANDARD PLATE"}, "[3]": {"conditions": "Test System: AMES SALMONELLA TYPHIMURIUM, Strain/Indicator: TA98, Metabolic Activation: RAT, LIVER, S-9, AROCLOR 1254, Method: STANDARD PLATE"}},
  "note": "Active and inactive are the calls of the source. No rule for the calls is given here.",
  "data": [
    {"smiles": "C[C@@](Cc1ccc(O)c(O)c1)(NN)C(=O)O", "values": [
      {"measurement": "mutagenic call", "setting": "[1]", "value": "active; positive"},
      {"measurement": "mutagenic call", "setting": "Test System: AMES SALMONELLA TYPHIMURIUM, Strain/Indicator: TA100, Metabolic Activation: RAT, LIVER, S-9, PHENOBARBITAL, Method: STANDARD PLATE", "value": "active; positive"},
      {"measurement": "mutagenic call", "setting": "Test System: UDS RAT HEPATOCYTES, Strain/Indicator: THY INCORP, Metabolic Activation: NONE, Method: AUTORADIOGRAPHY", "value": "inactive; negative"}
    ]},
    {"smiles": "Nc1c(C(=O)O)cc([N+](=O)[O-])c2c1C(=O)c1ccccc1C2=O", "values": [
      {"measurement": "mutagenic call", "setting": "[2]", "value": "active; positive"},
      {"measurement": "mutagenic call", "setting": "[3]", "value": "active; positive"},
      {"measurement": "mutagenic call", "setting": "[1]", "value": "active; positive"},
      {"measurement": "mutagenic call", "setting": "Test System: AMES SALMONELLA TYPHIMURIUM, Strain/Indicator: TA100, Metabolic Activation: RAT, LIVER, S-9, AROCLOR 1254, Method: STANDARD PLATE", "value": "active; positive"},
      {"measurement": "mutagenic call", "setting": "Test System: AMES SALMONELLA TYPHIMURIUM, Strain/Indicator: TA1535, Metabolic Activation: NONE, Method: STANDARD PLATE", "value": "inactive; negative"},
      {"measurement": "mutagenic call", "setting": "Test System: AMES SALMONELLA TYPHIMURIUM, Strain/Indicator: TA1537, Metabolic Activation: NONE, Method: STANDARD PLATE", "value": "active; positive"},
      {"measurement": "mutagenic call", "setting": "Test System: AMES SALMONELLA TYPHIMURIUM, Strain/Indicator: TA1537, Metabolic Activation: RAT, LIVER, S-9, AROCLOR 1254, Method: STANDARD PLATE", "value": "active; positive"},
      {"measurement": "mutagenic call", "setting": "Test System: AMES SALMONELLA TYPHIMURIUM, Strain/Indicator: TA1538, Metabolic Activation: NONE, Method: STANDARD PLATE", "value": "active; positive"},
      {"measurement": "mutagenic call", "setting": "Test System: AMES SALMONELLA TYPHIMURIUM, Strain/Indicator: TA1538, Metabolic Activation: RAT, LIVER, S-9, AROCLOR 1254, Method: STANDARD PLATE", "value": "active; positive"},
      {"measurement": "mutagenic call", "setting": "Test System: AMES SALMONELLA TYPHIMURIUM, Strain/Indicator: TA1978, Metabolic Activation: NONE, Method: STANDARD PLATE", "value": "active; positive"}
    ]},
    {"smiles": "O=[N+]([O-])c1cc2c3c(cccc3c1)-c1ccccc1-2", "values": [
      {"measurement": "mutagenic call", "setting": "Test System: AMES SALMONELLA TYPHIMURIUM, Strain/Indicator: TA98(1,8-DNP6), Metabolic Activation: NONE, Method: STANDARD PLATE", "value": "inactive; negative"},
      {"measurement": "mutagenic call", "setting": "Test System: AMES SALMONELLA TYPHIMURIUM, Strain/Indicator: TA98(NR), Metabolic Activation: NONE, Method: STANDARD PLATE", "value": "inactive; negative"},
      {"measurement": "mutagenic call", "setting": "[2]", "value": "active; positive"},
      {"measurement": "mutagenic call", "setting": "Test System: AMES SALMONELLA TYPHIMURIUM, Strain/Indicator: TA7001, Metabolic Activation: NONE, Method: PREINCUBATION", "value": "inactive; negative"},
      {"measurement": "mutagenic call", "setting": "Test System: AMES SALMONELLA TYPHIMURIUM, Strain/Indicator: TA7002, Metabolic Activation: NONE, Method: PREINCUBATION", "value": "active; positive"},
      {"measurement": "mutagenic call", "setting": "Test System: AMES SALMONELLA TYPHIMURIUM, Strain/Indicator: TA7003, Metabolic Activation: NONE, Method: PREINCUBATION", "value": "inactive; negative"},
      {"measurement": "mutagenic call", "setting": "Test System: AMES SALMONELLA TYPHIMURIUM, Strain/Indicator: TA7004, Metabolic Activation: NONE, Method: PREINCUBATION", "value": "active; positive"},
      {"measurement": "mutagenic call", "setting": "Test System: AMES SALMONELLA TYPHIMURIUM, Strain/Indicator: TA7005, Metabolic Activation: NONE, Method: PREINCUBATION", "value": "active; positive"},
      {"measurement": "mutagenic call", "setting": "Test System: AMES SALMONELLA TYPHIMURIUM, Strain/Indicator: TA7006, Metabolic Activation: NONE, Method: PREINCUBATION", "value": "active; positive"}
    ]},
    {"smiles": "Cc1cnc2c(cc(C)c3c2nc(N)n3C)n1", "values": [
      {"measurement": "mutagenic call", "setting": "[3]", "value": "active; positive"}
    ]},
    {"smiles": "CC(C)(C)CC(C)(C)c1ccc(OCCO)cc1", "values": [
      {"measurement": "mutagenic call", "setting": "Test System: MOUSE LYMPHOMA, Strain/Indicator: L5178Y (TK+/TK-), Metabolic Activation: NONE, Method: SUSPENSION/PLATE", "value": "inactive; negative"}
    ]}
  ]
}
